In patent US20230250060A1 (IFM Due, Inc., priority 2022, published 2023):

Target: T1, STING (Homo sapiens, UniProt Q86WV6, G230A/H232R/R293Q/R71H)
T1 construct: host or cells: THP1-Dual KO-IFNAR2 cells
Test: STING reporter assay (luciferase) in THP1-Dual KO-IFNAR2 cells stimulated with 2′3′cGAMP
Format: cell-based
Conditions: 2′3′cGAMP 15 μM final, 24 h, luciferase reporter activity, read-out: Pharmaron, THP1_IFNAR2 STING 24 h Luci Normalized: GeoMean EC50
Method: STING pathway activation by the compounds described herein was measured using TTIP1-Dual™ cells (KO-IFNAR2).
TTIP1-Dual™ KO-IFNAR2 Cells (obtained from invivogen) were maintained in RPMI, 10% FCS, 5 ml P/S, 2 mM L-glut, 10 mM Hepes, and 1 mM sodium pyruvate. Compounds were spotted in empty 384 well tissue culture plates (Greiner 781182) by Echo for a final concentration of 0.0017-100 μM. Cells were plated into the TC plates at 40 μL per well, 2×10E6 cells/mL. For activation with STING ligand, 2′3′cGAMP (MW 718.38, obtained from Invivogen), was prepared in Optimem media.
The following solutions were prepared for each 1×384 plate: • Solution A: 2 mL Optimem with one of the following stimuli: • […] • Solution B: 2 mL Optimem with […] Lipofectamine 2000→Incubate 5 min at RT
2 mL of solution A and 2 ml Solution B was mixed and incubated for 20 min at room temperature (RT). 20 μL of transfection solution (A+B) was added on top of the plated cells, with a final 2′3′cGAMP concentration of 15 μM. The plates were then centrifuged immediately at 340 g for 1 minute, after which they were incubated at 37° C., 5% CO2, >98% humidity for 24 h. Luciferase reporter activity was then measured. EC50 values were calculated by using standard methods known in the art.
Luciferase reporter assay: 10 μL of supernatant from the assay was transferred to white 384-plate with flat bottom and squared wells. One pouch of QUANTI-Luc™ Plus was dissolved in 25 mL of water. 100 μL of QLC Stabilizer per 25 mL of QUANTI-Luc™ Plus solution was added. 50 μL of QUANTI-Luc™ Plus/QLC solution per well was then added. Luminescence was measured on a Platereader (e.g., Spectramax I3X (Molecular Devices GF3637001)).
Luciferase reporter activity was then measured. EC50 values were calculated by using standard methods known in the art.

T1 sequence (Q86WV6 whole entry R71H/G230A/H232R/R293Q): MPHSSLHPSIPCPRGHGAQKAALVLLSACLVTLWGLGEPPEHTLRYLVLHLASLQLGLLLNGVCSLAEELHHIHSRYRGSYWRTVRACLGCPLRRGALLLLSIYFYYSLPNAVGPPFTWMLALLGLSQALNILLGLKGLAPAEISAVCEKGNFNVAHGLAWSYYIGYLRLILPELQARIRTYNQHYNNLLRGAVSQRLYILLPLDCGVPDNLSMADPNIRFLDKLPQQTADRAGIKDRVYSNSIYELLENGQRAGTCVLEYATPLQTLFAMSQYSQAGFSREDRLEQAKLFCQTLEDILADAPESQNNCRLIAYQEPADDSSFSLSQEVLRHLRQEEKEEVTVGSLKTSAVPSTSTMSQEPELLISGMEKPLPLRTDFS

Row | SMILES | EC50
1 | O=C(Nc1c[nH]c2ccc(O[C@H]3C[C@@H](c4ccc(C(F)(F)F)cc4)C3)cc12)C1CC2(CCC2)C1 [Compound 155, N-(5-((1s,3s)-3-(4-(trifluoromethyl)phenyl)cyclobutoxy)-1H-indol-3-yl)spiro[3.3]heptane-2-carboxamide] | 200 to 1000 nM
2 | O=C(Nc1c[nH]c2ccc(OCc3ccc(C(F)(F)F)cc3)cc12)C1CC2(CCC2)C1 [Compound 151, N-(5-((4-(trifluoromethyl)benzyl)oxy)-1H-indol-3-yl)spiro[3.3]heptane-2-carboxamide] | 200 to 1000 nM
3 | Cn1ccnc1C(=O)Nc1c[nH]c2ccc(O[C@H]3C[C@@H](c4ccc(C(F)(F)F)cc4)C3)cc12 [Compound 139, 1-methyl-N-(5-((1s,3s)-3-(4-(trifluoromethyl)phenyl)cyclobutoxy)-1H-indol-3-yl)-1H-imidazole-2-carboxamide] | 200 to 1000 nM
4 | O=C(Nc1c[nH]c2ccc(O[C@H]3C[C@H](c4ccc(C(F)(F)F)cc4)C3)cc12)C1C2COCC21 (stereo partly drawn) [Compound 207, N-(5-(trans-3-(4-(trifluoromethyl)phenyl)cyclobutoxy)-1H-indol-3-yl)-3-oxabicyclo[3.1.0]hexane-6-carboxamide] | 200 to 1000 nM
5 | Cn1ccnc1C(=O)Nc1c[nH]c2ccc(OCCc3ccc(C(F)(F)F)cc3)cc12 [Compound 146, 1-methyl-N-(5-(4-(trifluoromethyl)phenethoxy)-1H-indol-3-yl)-1H-imidazole-2-carboxamide] | 40 to 200 nM
6 | O=C(Nc1c[nH]c2ccc(O[C@H]3C[C@H](c4ccc(C(F)(F)F)cc4)C3)cc12)c1cncs1 [Compound 235, N-{5-[(1R,3R)-3-[4-(trifluoromethyl)phenyl]cyclobutoxy]-1H-indol-3-yl}-1,3-thiazole-5-carboxamide] | 200 to 1000 nM
7 | O=C(Nc1c[nH]c2ccc(OCc3ccc(C(F)(F)F)cc3)cc12)c1ccncc1 [Compound 147, N-(5-((4-(trifluoromethyl)benzyl)oxy)-1H-indol-3-yl)isonicotinamide] | 200 to 1000 nM
8 | O=C(Nc1c[nH]c2ccc(O[C@H]3C[C@@H](c4ccc(C(F)(F)F)cc4)C3)cc12)c1ccccn1 [Compound 170, N-(5-((1s,3s)-3-(4-(trifluoromethyl)phenyl)cyclobutoxy)-1H-indol-3-yl)picolinamide] | 1000 to 5000 nM
9 | O=C(Nc1c[nH]c2ccc(OCc3ccc(C(F)(F)F)cc3)cc12)c1cncs1 [Compound 154, N-(5-((4-(trifluoromethyl)benzyl)oxy)-1H-indol-3-yl)thiazole-5-carboxamide] | 200 to 1000 nM
10 | O=C(Nc1c[nH]c2ccc(OCc3ccc(C(F)(F)F)cc3)cc12)c1ncccc1F [Compound 152, 3-fluoro-N-(5-((4-(trifluoromethyl)benzyl)oxy)-1H-indol-3-yl)picolinamide] | 200 to 1000 nM
11 | O=C(Nc1c[nH]c2ccc(O[C@H]3C[C@H](c4ccc(C(F)(F)F)cc4)C3)cc12)c1cccnc1 [Compound 227, N-{5-[(1R,3R)-3-[4-(trifluoromethyl)phenyl]cyclobutoxy]-1H-indol-3-yl}pyridine-3-carboxamide] | 200 to 1000 nM
12 | O=C(Nc1c[nH]c2ccc(O[C@H]3C[C@H](c4ccc(C(F)(F)F)cc4)C3)cc12)c1cscn1 [Compound 239, N-(5-((1R,3R)-3-(4-(trifluoromethyl)phenyl)cyclobutoxy)-1H-indol-3-yl)thiazole-4-carboxamide] | 40 to 200 nM
13 | O=C(Nc1c[nH]c2ccc(OCC[C@@H]3C[C@@H]4CN(CC(F)(F)F)C[C@@H]4C3)cc12)c1nccs1 [Compound 188, N-(5-(2-((3aR,5r,6aS)-2-(2,2,2-trifluoroethyl)octahydrocyclopenta[c]pyrrol-5-yl)ethoxy)-1H-indol-3-yl)thiazole-2-carboxamide] | 200 to 1000 nM
14 | O=C(Nc1c[nH]c2ccc(OCCc3ccc(C(F)(F)F)cc3)cc12)c1cscn1 [Compound 114, N-(5-(4-(trifluoromethyl)phenethoxy)-1H-indol-3-yl)thiazole-4-carboxamide] | 200 to 1000 nM
15 | O=C(Nc1c[nH]c2ccc(O[C@H]3C[C@@H](c4ccc(C(F)(F)F)cc4)C3)cc12)C12CC(C1)C2 [Compound 173, N-(5-((1s,3s)-3-(4-(trifluoromethyl)phenyl)cyclobutoxy)-1H-indol-3-yl)bicyclo[1.1.1]pentane-1-carboxamide] | 200 to 1000 nM
16 | O=C(Nc1c[nH]c2ccc(O[C@H]3C[C@H](c4ccc(C(F)(F)F)cc4)C3)cc12)c1ncccc1F [Compound 231, 3-fluoro-N-{5-[(1R,3R)-3-[4-(trifluoromethyl)phenyl]cyclobutoxy]-1H-indol-3-yl}pyridine-2-carboxamide] | 40 to 200 nM
17 | O=C(Nc1c[nH]c2ccc(OCc3ccc(C(F)(F)F)cc3)cc12)C1CC12CC2 (centres unmarked) [Compound 101, N-(5-((4-(trifluoromethyl)benzyl)oxy)-1H-indol-3-yl)spiro[2.2]pentane-1-carboxamide] | 200 to 1000 nM
18 | O=C(Nc1c[nH]c2ccc(OCC[C@@H]3C[C@@H]4CN(CC(F)(F)F)C[C@@H]4C3)cc12)C1CC2(COC2)C1 [Compound 206, N-(5-(2-((3aR,5r,6aS)-2-(2,2,2-trifluoroethyl)octahydrocyclopenta[c]pyrrol-5-yl)ethoxy)-1H-indol-3-yl)-2-oxaspiro[3.3]heptane-6-carboxamide] | 200 to 1000 nM
19 | O=C(Nc1c[nH]c2ccc(OCC[C@@H]3C[C@@H]4CN(CC(F)(F)F)C[C@@H]4C3)cc12)c1ncccc1F [Compound 187, 3-fluoro-N-(5-(2-((3aR,5r,6aS)-2-(2,2,2-trifluoroethyl)octahydrocyclopenta[c]pyrrol-5-yl)ethoxy)-1H-indol-3-yl)picolinamide] | 1000 to 5000 nM
20 | O=C(Nc1c[nH]c2ccc(CCOc3ccc(C(F)(F)F)cc3)cc12)c1ccncc1 [Compound 194, N-(5-(2-(4-(trifluoromethyl)phenoxy)ethyl)-1H-indol-3-yl)isonicotinamide] | 200 to 1000 nM
21 | O=C(Nc1c[nH]c2ccc(O[C@H]3C[C@@H](c4ccc(C(F)(F)F)cc4)C3)cc12)C1CC12CC2 (some centres unmarked) [Compound 172, N-(5-((1s,3s)-3-(4-(trifluoromethyl)phenyl)cyclobutoxy)-1H-indol-3-yl)spiro[2.2]pentane-1-carboxamide] | 200 to 1000 nM
22 | CC12CC(C(=O)Nc3c[nH]c4ccc(OCc5ccc(C(F)(F)F)cc5)cc34)(C1)C2 [Compound 163, 3-methyl-N-(5-((4-(trifluoromethyl)benzyl)oxy)-1H-indol-3-yl)bicyclo[1.1.1]pentane-1-carboxamide] | 200 to 1000 nM
23 | Cc1noc(C)c1C(=O)Nc1c[nH]c2ccc(OCc3ccc(C(F)(F)F)cc3)cc12 [Compound 153, 3,5-dimethyl-N-(5-((4-(trifluoromethyl)benzyl)oxy)-1H-indol-3-yl)isoxazole-4-carboxamide] | 200 to 1000 nM
24 | Cc1oncc1C(=O)Nc1c[nH]c2ccc(O[C@H]3C[C@@H](c4ccc(C(F)(F)F)cc4)C3)cc12 [Compound 176, 5-methyl-N-(5-((1s,3s)-3-(4-(trifluoromethyl)phenyl)cyclobutoxy)-1H-indol-3-yl)isoxazole-4-carboxamide] | 5000 to 100000 nM
25 | O=C(Nc1c[nH]c2ccc(OCCc3ccc(C(F)(F)F)cc3)cc12)c1ncco1 [Compound 161, N-(5-(4-(trifluoromethyl)phenethoxy)-1H-indol-3-yl)oxazole-2-carboxamide] | 200 to 1000 nM
26 | Cc1oncc1C(=O)Nc1c[nH]c2ccc(OCC[C@@H]3C[C@@H]4CN(CC(F)(F)F)C[C@@H]4C3)cc12 [Compound 159, 5-methyl-N-(5-(2-((3aR,5r,6aS)-2-(2,2,2-trifluoroethyl)octahydrocyclopenta[c]pyrrol-5-yl)ethoxy)-1H-indol-3-yl)isoxazole-4-carboxamide] | 5000 to 100000 nM
27 | CC12CC(C(=O)Nc3c[nH]c4ccc(CCOc5ccc(C(F)(F)F)cc5)cc34)(C1)C2 [Compound 199, 3-methyl-N-(5-(2-(4-(trifluoromethyl)phenoxy)ethyl)-1H-indol-3-yl)bicyclo[1.1.1]pentane-1-carboxamide] | 200 to 1000 nM
28 | CC12CC(C(=O)Nc3c[nH]c4ccc(O[C@H]5C[C@@H](c6ccc(C(F)(F)F)cc6)C5)cc34)(C1)C2 [Compound 171, 3-methyl-N-(5-((1s,3s)-3-(4-(trifluoromethyl)phenyl)cyclobutoxy)-1H-indol-3-yl)bicyclo[1.1.1]pentane-1-carboxamide] | 200 to 1000 nM
29 | N#CC12CC(C(=O)Nc3c[nH]c4ccc(OCCc5ccc(C(F)(F)F)cc5)cc34)(C1)C2 [Compound 106, 3-cyano-N-(5-(4-(trifluoromethyl)phenethoxy)-1H-indol-3-yl)bicyclo[1.1.1]pentane-1-carboxamide] | 200 to 1000 nM
